According to article PMC7206685, “Interactions between host biogenic amines and sand fly salivary yellow-related proteins” (Parasites & Vectors, 2020):

Biological target: T1, PagSP04 (Phlebotomus argentipes, UniProt Q0ZSU5)
T1 construct: secreted recombinant protein from HEK293S GnTI- cells (pTW5sec); IMAC and size exclusion
T1 sequence (Q0ZSU5 19-398): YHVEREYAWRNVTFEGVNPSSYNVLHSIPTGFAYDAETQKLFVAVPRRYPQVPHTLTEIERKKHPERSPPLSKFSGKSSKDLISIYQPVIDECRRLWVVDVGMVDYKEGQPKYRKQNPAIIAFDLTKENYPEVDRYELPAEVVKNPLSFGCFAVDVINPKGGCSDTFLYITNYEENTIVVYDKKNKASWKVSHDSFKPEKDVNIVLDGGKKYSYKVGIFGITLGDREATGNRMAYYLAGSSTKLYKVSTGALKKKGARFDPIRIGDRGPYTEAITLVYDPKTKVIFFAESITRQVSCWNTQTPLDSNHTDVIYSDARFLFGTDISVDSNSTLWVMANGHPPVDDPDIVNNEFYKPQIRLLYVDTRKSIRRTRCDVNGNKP
Assay: microscale thermophoresis
Type: binding
Excerpt: microscale thermophoresis on PagSP04

Row | SMILES | Kd
1 | NCCc1c[nH]c2ccc(O)cc12 [Serotonin] | 0.0869 µM
2 | NCCc1c[nH]cn1 [Histamine] | 9.3 µM
